Measurements taken from EP0175171A2, “Use of 3,7,11,15-tetramethyl-2,4,6,10,14-hexadecapentaenoic acid for enhancing the effect of anti-tumour agents” (Eisai Co., Ltd., priority 1984, dated 1986).
Converted amounts (≈) assume the structure as drawn. Structures can show the parent of a compound that is named as a salt.

What was measured:
HeLa.S3 cell [1] = experiment: Enhancement of cytocidal effect: colony formation of HeLa S3 cells, known carcinostatic drug added simultaneously with the compound of the present invention, 7 days; assay type: cell-based, human; conditions: for enhancement of the cytocidal effect of a carcinostatic drug: conclusion in words from the figures of Table 2 (CPM by the S9 mix protocol)
Protocol: Effect of the simultaneous use of a known carcinostatic agent and the compound (I) (Enhancement of cytocidal effect) • (1) Experimental material and procedure • ① Cell: Epithelical cell from human uterocervical cancer, HeLa.S3 cell • ② Cultivation: The cell was cultivated using a culture fluid obtained by adding 10 parts of fetal calf serum to 90 parts of Eagles Minimum Essential Medium in an incuvator having a carbon dioxide concentration controlled to 5% at 37°C. • ③ Drug: The compound of the present invention was added as a solution in dimethyl sulfoxide(DMSO) of a final DMSO concentration of 0.1% to the culture fluid. The clinical injections as shown in Table 1 were added to the culture fluid as a known carcinostatic drug. […] After the cultivation for 7 days, the cells were fixed with methanol and subjected to Giemsa's staining, followed by calculation of the number of colonies containing at least 20 cells under a stereomicroscope. The concentration (ng/mℓ) of the carcinostatic drug required to decrease the ratio of the number of colonies of a treated group to that of an untreated group (control) to 50% were determined and are shown as "IC50".

HeLa.S3 cell [2] = experiment: cells; conditions: Homo sapiens
Protocol: The clinical injections as shown in Table 1 were added to the culture fluid as a known carcinostatic drug. [formula] • ④ Experimental procedure: 150 epithelical cells from human uterocervical cancer (HeLaS3 cell) were planted in each plastic dish of a diameter of 60 mm. […] After the cultivation for 7 days, the cells were fixed with methanol and subjected to Giemsa's staining, followed by calculation of the number of colonies containing at least 20 cells under a stereomicroscope. The concentration (ng/mℓ) of the carcinostatic drug required to decrease the ratio of the number of colonies of a treated group to that of an untreated group (control) to 50% were determined and are shown as "IC50".

[3] = Toxicological test, oral administration for 14 days; assay type: in vivo; conditions: female ICR mice, orally, 14 days, 40, 200 or 400 mg/kg/day
Protocol: The compound of the present invention, 3,7,11,15-tetramethyl-2,4,6,10,14-hexadecapentaenoic acid, was administered orally to each group consisting of six female ICR mice for 14 days at a dosage of 40, 200 or 400 mg/kg/day, respectively, to observe changes in the weight, the mortality or the like.

[4] = Homo sapiens, HeLa S3, compound of the present invention 0 M; listed as 1): based on case where both compound and drug are 0, read-out: IC50 (ng/ml) 0 a)
[5] = Homo sapiens, HeLa S3, compound of the present invention 0 M; listed as 2): based on case where drug is 0 at the same compound concentration, read-out: IC50 (ng/ml) 0 a)
[6] = Homo sapiens, HeLa S3, compound of the present invention 3.2×10^-5 M; listed as 1): based on case where both compound and drug are 0, read-out: IC50 (ng/ml) 3.2×10^-5 d)
[7] = Homo sapiens, HeLa S3, compound of the present invention 3.2×10^-5 M; listed as 2): based on case where compound is 3.2×10^-5 M and drug is 0, read-out: IC50 (ng/ml) 3.2×10^-5 d)
[8] = Homo sapiens, HeLa S3, compound of the present invention 10^-5 M; listed as 1): based on case where both compound and drug are 0, read-out: IC50 (ng/ml) 10^-5 c)
[9] = Homo sapiens, HeLa S3, compound of the present invention 10^-5 M; listed as 2): based on case where compound is 10^-5 M and drug is 0, read-out: IC50 (ng/ml) 10^-5 c)
[10] = Homo sapiens, HeLa S3, compound of the present invention 10^-6 M; listed as 1): based on case where both compound and drug are 0, read-out: IC50 (ng/ml) 10^-6 b)
[11] = Homo sapiens, HeLa S3, compound of the present invention 10^-6 M; listed as 2): based on case where compound is 10^-6 M and drug is 0, read-out: IC50 (ng/ml) 10^-6 b)

Compound	IC50 (HeLa.S3 cell [1]; [4]) [ng/mL]	IC50 (HeLa.S3 cell [1]; [5]) [ng/mL]	IC50 (HeLa.S3 cell [1]; [6]) [ng/mL]	IC50 (HeLa.S3 cell [1]; [7]) [ng/mL]	IC50 (HeLa.S3 cell [1]; [8]) [ng/mL]	IC50 (HeLa.S3 cell [1]; [9]) [ng/mL]	IC50 (HeLa.S3 cell [1]; [10]) [ng/mL]	IC50 (HeLa.S3 cell [1]; [11]) [ng/mL]	enhancement of the cytocidal effect of a carcinostatic drug (HeLa.S3 cell [1])	also measured
CO[C@@]12[C@H](COC(N)=O)C3=C(C(=O)C(C)=C(N)C3=O)N1C[C@@H]1N[C@@H]12 [MMC, mitomycin]	1.5	1.5	0.4	0.84	0.74	0.82	1.05	1.06	particularly remarkable	
CC[C@]1(O)C[C@H]2CN(CCc3c([nH]c4ccccc34)[C@@](C(=O)OC)(c3cc4c(cc3OC)N(C=O)[C@H]3[C@@](O)(C(=O)OC)[C@H](OC(C)=O)[C@]5(CC)C=CCN6CC[C@]43[C@@H]65)C2)C1 [VCR, vincristine sulfate]	5.5	5.5	2.63	5.65	6.38	7.7	7.44	7.45		
O=P1(N(CCCl)CCCl)NCCCO1 (centres unmarked) [CPM, cyclophosphamide]									particularly remarkable	IC50 (HeLa.S3 cell [2]; HeLa S3, read-out: IC50 (ng/ml) 0 a), S9 mix protocol; compound of the present invention 0 M; listed as 1): based on case where both compound and drug are 0): 4210 ng/mL (≈ 16.1 µM); IC50 (HeLa.S3 cell [2]; HeLa S3, read-out: IC50 (ng/ml) 0 a), S9 mix protocol; compound of the present invention 0 M; listed as 2): based on case where drug is 0 at the same compound concentration): 4210 ng/mL (≈ 16.1 µM); IC50 (HeLa.S3 cell [2]; HeLa S3, read-out: IC50 (ng/ml) 3.2×10^-5 d), S9 mix protocol; compound of the present invention 3.2×10^-5 M; listed as 1)): 1220 ng/mL (≈ 4.69 µM); IC50 (HeLa.S3 cell [2]; HeLa S3, read-out: IC50 (ng/ml) 3.2×10^-5 d), S9 mix protocol; compound of the present invention 3.2×10^-5 M; listed as 2)): 2300 ng/mL (≈ 8.82 µM); IC50 (HeLa.S3 cell [2]; HeLa S3, read-out: IC50 (ng/ml) 10^-5 c), S9 mix protocol; compound of the present invention 10^-5 M; listed as 1)): 1330 ng/mL (≈ 5.08 µM); IC50 (HeLa.S3 cell [2]; HeLa S3, read-out: IC50 (ng/ml) 10^-5 c), S9 mix protocol; compound of the present invention 10^-5 M; listed as 2)): 1970 ng/mL (≈ 7.56 µM); IC50 (HeLa.S3 cell [2]; HeLa S3, read-out: IC50 (ng/ml) 10^-6 b), S9 mix protocol; compound of the present invention 10^-6 M; listed as 1)): 3360 ng/mL (≈ 12.9 µM); IC50 (HeLa.S3 cell [2]; HeLa S3, read-out: IC50 (ng/ml) 10^-6 b), S9 mix protocol; compound of the present invention 10^-6 M; listed as 2)): 3160 ng/mL (≈ 12.1 µM)
O=c1[nH]cc(F)c(=O)[nH]1 [5-FU, fluorouracil]	648	648	267	347	329	369	375	388	particularly remarkable	
bleomycin hydrochloride [BLM]									particularly remarkable	
Cc1ncc(CNC(=O)N(CCCl)N=O)c(N)n1 [ACNU, minustine hydrochloride]	135	135	102	136	146	150	143	147		
S=P(N1CC1)(N1CC1)N1CC1 [Thio-TEPA, Thio TEPA]										IC50 (HeLa.S3 cell [1]; Homo sapiens, HeLa S3, read-out: IC50 (ng/ml) 0 a), compound of the present invention 0 M; 1): based on case where both compound and drug are 0): 311 ng/mL; IC50 (HeLa.S3 cell [1]; Homo sapiens, HeLa S3, read-out: IC50 (ng/ml) 0 a), compound of the present invention 0 M; listed as 2): based on case where drug is 0 at the same compound concentration): 311 ng/mL; IC50 (HeLa.S3 cell [1]; Homo sapiens, HeLa S3, read-out: IC50 (ng/ml) 3.2×10^-5 d), compound of the present invention 3.2×10^-5 M; 2): based on case where compound is 3.2×10^-5 M and drug is 0): 244 ng/mL; IC50 (HeLa.S3 cell [1]; Homo sapiens, HeLa S3, read-out: IC50 (ng/ml) 3.2×10^-5 d), compound of the present invention 3.2×10^-5 M; listed as 1): based on case where both compound and drug are 0): 274 ng/mL; IC50 (HeLa.S3 cell [1]; Homo sapiens, HeLa S3, read-out: IC50 (ng/ml) 10^-5 c), compound of the present invention 10^-5 M; listed as 1): based on case where both compound and drug are 0): 299 ng/mL; IC50 (HeLa.S3 cell [1]; Homo sapiens, HeLa S3, read-out: IC50 (ng/ml) 10^-5 c), compound of the present invention 10^-5 M; listed as 2): based on case where compound is 10^-5 M and drug is 0): 319 ng/mL; IC50 (HeLa.S3 cell [1]; Homo sapiens, HeLa S3, read-out: IC50 (ng/ml) 10^-6 b), compound of the present invention 10^-6 M; 2): based on case where compound is 10^-6 M and drug is 0): 291 ng/mL; IC50 (HeLa.S3 cell [1]; Homo sapiens, HeLa S3, read-out: IC50 (ng/ml) 10^-6 b), compound of the present invention 10^-6 M; listed as 1): based on case where both compound and drug are 0): 274 ng/mL
Nc1ccn([C@@H]2O[C@H](CO)[C@@H](O)[C@@H]2O)c(=O)n1 [Ara-C, cytarabine]	10.9	10.9	6.25	11.6	11.4	12.4	11.9	12		
Cc1c(N)nc([C@H](CC(N)=O)NC[C@H](N)C(N)=O)nc1C(=O)N[C@H](C(=O)N[C@H](C)[C@@H](O)[C@H](C)C(=O)N[C@H](C(=O)NCCc1nc(-c2nc(C(=O)NCCCN[C@@H](C)c3ccccc3)cs2)cs1)[C@@H](C)O)[C@@H](O[C@@H]1O[C@@H](CO)[C@@H](O)[C@H](O)[C@@H]1O[C@H]1O[C@H](CO)[C@@H](O)[C@H](OC(N)=O)[C@@H]1O)c1c[nH]cn1.O=S(=O)(O)O [PEP, pepleomycin sulfate]									particularly remarkable	
CC(C)=CCCC(C)=CCCC(C)=CC=CC(C)=CC(=O)O [compound of the present invention, 3,7,11,15-tetramethyl-2,4,6,10,14-hexadecapentaenoic acid]									synergisticly enhances the cytocidal effect of a carcinostatic drug	mortality [3]: No mice died
COC(COC(N)=O)C1=C(N2CC2)C(=O)C(C)=C(N2CC2)C1=O (centres unmarked) [CQ, carboquone]	0.339	0.339	0.076	0.131	0.242	0.275	0.273	0.253	particularly remarkable	
COc1cccc2c1C(=O)c1c(O)c3c(c(O)c1C2=O)C[C@@](O)(C(=O)CO)C[C@@H]3O[C@H]1C[C@H](N)[C@H](O)[C@H](C)O1 [ADM, doxorubicin hydrochloride]	3.79	3.79	1.88	3.14	2.43	4.15	3.1	3.51		
